For 21 molecules, T/C results are on record in PubChem BioAssay AID330 (DTP/NCI, 2004).

This assay concerns P388 leukemia ip, CD2F1 mice, survival T/C. The assay can be described thus: NCI In Vivo Anticancer Drug Screen. Data for tumor model P388 Leukemia (intraperitoneal) in CD2F1 (CDF1) mice. As to conditions: endpoint: median survival time, higher = longer survival. Summed up: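 Mice carrying the transplanted tumor received test compound or vehicle. Survival was recorded in each group, and the value is the treated-group measurement divided by that of the vehicle-treated control group.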

Where [1] appears, read: dose: 50.0 mg/kg/injection, schedule: Q01DX009 (ip), vehicle: saline.
Setting [2] is: dose: 100.0 mg/kg/injection, schedule: Q01DX009 (ip), vehicle: saline.
Where [3] appears, read: dose: 200.0 mg/kg/injection, schedule: Q01DX009 (ip), vehicle: saline.
[4] abbreviates: dose: 25.0 mg/kg/injection, schedule: Q01DX009 (ip), vehicle: saline with Tween-80.
Setting [5] is: dose: 50.0 mg/kg/injection, schedule: Q01DX009 (ip), vehicle: saline with Tween-80.
Setting [6] is: dose: 100.0 mg/kg/injection, schedule: Q01DX009 (ip), vehicle: saline with Tween-80.
Where [7] appears, read: dose: 200.0 mg/kg/injection, schedule: Q01DX009 (ip), vehicle: saline with Tween-80.
Where [8] appears, read: dose: 25.0 mg/kg/injection, schedule: Q01DX009 (ip), vehicle: Klucel (hydroxypropylcellulose) (HPC).
Setting [9] is: dose: 50.0 mg/kg/injection, schedule: Q01DX009 (ip), vehicle: Klucel (hydroxypropylcellulose) (HPC).
[10] abbreviates: dose: 100.0 mg/kg/injection, schedule: Q01DX009 (ip), vehicle: Klucel (hydroxypropylcellulose) (HPC).
Where [11] appears, read: dose: 200.0 mg/kg/injection, schedule: Q01DX009 (ip), vehicle: Klucel (hydroxypropylcellulose) (HPC).
Setting [12] is: dose: 100.0 mg/kg/injection, schedule: Q01DX005 (ip), vehicle: saline with Tween-80.
Setting [13] is: dose: 200.0 mg/kg/injection, schedule: Q01DX005 (ip), vehicle: saline with Tween-80.
The mark [14] stands for this setting: dose: 50.0 mg/kg/injection, schedule: Q01DX005 (ip), vehicle: saline with Tween-80.
Where [15] appears, read: dose: 12.5 mg/kg/injection, schedule: Q01DX009 (ip), vehicle: Klucel (hydroxypropylcellulose) (HPC).

“And” between values parts separate entries of the source, which are not always exact repeats. Identical values can stand only once. Inconclusive results and toxic doses are left out.

On to `Cc1c2ccnc(C(N)=O)c2c(C)c2c1[nH]c1ccccc12`, for which the T/C (dose: 6.25 mg/kg/injection, schedule: Q04DX002 (ip), vehicle: distilled water + Tween-80) was 99 % of control; the T/C (dose: 6.25 mg/kg/injection, schedule: Q04DX003 (ip), vehicle: distilled water + Tween-80) is 111 % of control; the T/C (dose: 12.5 mg/kg/injection, schedule: Q04DX002 (ip), vehicle: distilled water + Tween-80) was 99 % of control; the T/C (dose: 12.5 mg/kg/injection, schedule: Q04DX003 (ip), vehicle: distilled water + Tween-80) was 112 % of control; the T/C (dose: 25.0 mg/kg/injection, schedule: Q04DX002 (ip), vehicle: distilled water + Tween-80) is 99 % of control; the T/C (dose: 25.0 mg/kg/injection, schedule: Q04DX003 (ip), vehicle: distilled water + Tween-80) was 112 % of control. The T/C by setting is: (dose: 50.0 mg/kg/injection, schedule: Q04DX002 (ip), vehicle: distilled water + Tween-80) 104 % of control; (dose: 50.0 mg/kg/injection, schedule: Q04DX003 (ip), vehicle: distilled water + Tween-80) 104 % of control; (dose: 100.0 mg/kg/injection, schedule: Q04DX002 (ip), vehicle: distilled water + Tween-80) 104 % of control and 111 % of control; (dose: 100.0 mg/kg/injection, schedule: Q04DX003 (ip), vehicle: distilled water + Tween-80) 111 % of control; (dose: 200.0 mg/kg/injection, schedule: Q04DX002 (ip), vehicle: distilled water + Tween-80) 118 % of control; (dose: 200.0 mg/kg/injection, schedule: Q04DX003 (ip), vehicle: distilled water + Tween-80) 115 % of control. Moreover, the T/C (dose: 800.0 mg/kg/injection, schedule: Q04DX002 (ip), vehicle: distilled water + Tween-80) was 155 % of control.

`CN(C1=NC1(C)C)c1ccccc1`: the T/C is 96 % of control under setting [1], 94 % of control under setting [2] and 91 % of control under setting [3].

On to `Clc1cc2c(nn1)Nc1ccccc1S2`, for which the T/C runs as follows: (dose: 12.5 mg/kg/injection, schedule: Q01DX009 (ip), vehicle: saline with Tween-80) 97 % of control; under setting [4], 96 % of control; under setting [5], 99 % of control and 87 % of control; under setting [6], 98 % of control; under setting [7], 87 % of control.

As to `CC(NC(=O)CCl)C(=O)O` (centres undefined), the T/C reads like this: under setting [4], 105 % of control and 109 % of control; under setting [5], 101 % of control and 103 % of control; under setting [1], 101 % of control; under setting [6], 105 % of control and 95 % of control; under setting [2], 105 % of control; under setting [7], 103 % of control. Also, under setting [3], the T/C was 101 % of control.

As for `O=C(O)C1Cc2nc[nH]c2CN1CO` (centres undefined), the T/C reads like this: under setting [4], 100 % of control; under setting [5], 109 % of control and 114 % of control; under setting [6], 119 % of control and 120 % of control.

As to `CC12OC1(C)C1C(=O)OCC1C2=O` (centres undefined), the T/C is 105 % of control under setting [8], 96 % of control under setting [9], 97 % of control under setting [10] and 117 % of control under setting [11].

For `CC(=O)N1C(C(=O)O)Cc2c([nH]c3ccccc23)C1(C)C` (centres undefined), the T/C was 108 % of control (dose: 100.0 mg/kg/injection, schedule: Q01DX001 (ip), vehicle: suspension in saline); 95 % of control (dose: 200.0 mg/kg/injection, schedule: Q01DX001 (ip), vehicle: suspension in saline); 107 % of control (dose: 400.0 mg/kg/injection, schedule: Q01DX001 (ip), vehicle: suspension in saline).

`Cc1ccc2c(c1)-c1[nH]c3ccccc3c1CS2`: the T/C runs as follows: (dose: 100.0 mg/kg/injection, schedule: Q04DX003 (ip), vehicle: Klucel (hydroxypropylcellulose) (HPC)) 104 % of control; (dose: 200.0 mg/kg/injection, schedule: Q04DX003 (ip), vehicle: Klucel (hydroxypropylcellulose) (HPC)) 115 % of control.

With `CS(=N)(=O)c1ccccc1N` (centres undefined), the T/C is, setting by setting: (dose: 100.0 mg/kg/injection, schedule: Q04DX003 (ip), vehicle: saline with Tween-80) 98 % of control; (dose: 200.0 mg/kg/injection, schedule: Q04DX003 (ip), vehicle: saline with Tween-80) 99 % of control; (dose: 400.0 mg/kg/injection, schedule: Q04DX003 (ip), vehicle: saline with Tween-80) 103 % of control.

On to `CSc1nc(N)c2cnn(C3CCCO3)c2n1` (centres undefined), for which the T/C is 102 % of control under setting [12]; 94 % of control under setting [13]; 97 % of control (dose: 400.0 mg/kg/injection, schedule: Q01DX005 (ip), vehicle: saline with Tween-80).

On to `COc1ccc(/C(N)=N/OCc2ccc(C#N)cc2)cc1`, for which the T/C was 96 % of control under setting [9], 93 % of control under setting [10] and 95 % of control under setting [11].

On to `CCOC(=O)N1CCN(C(=S)NNC(C)c2cc3ccccc3cn2)CC1` (centres undefined), for which the T/C is, setting by setting: (dose: 6.25 mg/kg/injection, schedule: Q01DX005 (ip), vehicle: saline with Tween-80) 103 % of control; (dose: 12.5 mg/kg/injection, schedule: Q01DX005 (ip), vehicle: saline with Tween-80) 113 % of control.

Turning to `[CH3][Sb]([CH3])[O][Sb]([CH3])[CH3]`, the T/C (dose: 60.0 mg/kg/injection, schedule: Q01DX005 (ip), vehicle: saline) was 110 % of control; the T/C (dose: 120.0 mg/kg/injection, schedule: Q01DX005 (ip), vehicle: saline) was 111 % of control; the T/C (dose: 240.0 mg/kg/injection, schedule: Q01DX005 (ip), vehicle: saline) is 107 % of control.

Regarding `Brc1c(-c2ccccc2)nc2ccccc2c1Br`, the T/C runs as follows: under setting [14], 103 % of control; under setting [12], 97 % of control; under setting [13], 94 % of control.

Regarding `Cc1ccc(S(=O)(=O)N/N=C/c2ccccc2Cl)cc1`, the T/C is 94 % of control (dose: 6.25 mg/kg/injection, schedule: Q01DX009 (ip), vehicle: Klucel (hydroxypropylcellulose) (HPC)); 98 % of control under setting [15]; 106 % of control under setting [8]; 106 % of control under setting [4]; 104 % of control under setting [9]; 104 % of control under setting [5]. The T/C under setting [10] is 106 % of control, the T/C under setting [6] was 106 % of control and the T/C under setting [7] is 100 % of control.

As for `C=CCOC(=O)C1=C(O[Si]C(C)(C)C)CCCC1`, the T/C under setting [5] was 96 % of control, the T/C under setting [6] was 99 % of control and the T/C under setting [7] was 109 % of control.

As to `O=C(Cc1nc2ccccc2nc1CC(=O)c1cccnc1)c1cccnc1`, the T/C is, setting by setting: (dose: 60.0 mg/kg/injection, schedule: Q01DX005 (ip), vehicle: saline with Tween-80) 102 % of control; (dose: 120.0 mg/kg/injection, schedule: Q01DX005 (ip), vehicle: saline with Tween-80) 93 % of control; (dose: 240.0 mg/kg/injection, schedule: Q01DX005 (ip), vehicle: saline with Tween-80) 93 % of control.

Turning to `CC/C=C/c1cc2ccccc2c(=O)o1`, the T/C runs as follows: under setting [15], 106 % of control; under setting [8], 114 % of control; under setting [9], 100 % of control; under setting [10], 110 % of control.

Turning to `NS(=O)(=O)c1ccc(N=c2c3ccccc3n(Cc3ccccc3)c3ccccc23)cc1`, the T/C by setting is: under setting [14], 88 % of control; under setting [12], 94 % of control.

For `CS(=O)(=O)[O][Sn]([CH3])([CH3])[O]S(C)(=O)=O`, the T/C (dose: 6.25 mg/kg/injection, schedule: Q04DX003 (ip), vehicle: saline) is 104 % of control; the T/C (dose: 12.5 mg/kg/injection, schedule: Q04DX003 (ip), vehicle: saline) was 109 % of control; the T/C (dose: 25.0 mg/kg/injection, schedule: Q04DX003 (ip), vehicle: saline) is 110 % of control.

Turning to `O=C(CC(=O)c1ccccc1)Nc1ccc(-c2nc3ccccc3c(=O)[nH]2)cc1`, the T/C is, setting by setting: (dose: 50.0 mg/kg/injection, schedule: Q01DX009 (ip), vehicle: saline + alcohol) 97 % of control; (dose: 100.0 mg/kg/injection, schedule: Q01DX009 (ip), vehicle: saline + alcohol) 92 % of control; (dose: 200.0 mg/kg/injection, schedule: Q01DX009 (ip), vehicle: saline + alcohol) 94 % of control.
